From patent publication US8575091B1, “Amylin analogues and pharmaceutical compositions thereof” (Novo Nordisk A/S, priority 2012, dated 2013)
Like-named read-outs stand apart in the source and are kept apart here. Numbered stars: 1 amine (or outer) side, 2 acyl side, 3 side chain; on linkers, the order of the positions; unused ones are H or OH. Bridge positions count the residues as written; N and C are the ends. Side chains are listed from the residue outwards. Peptide text beside a SMILES is read from it. * marks the point of attachment. C20 diacid = O=C(O)CCCCCCCCCCCCCCCCCCC(=O)*; γGlu = O=C(O)[C@H](CCC(=O)[*:2])N[*:1]

Assays:
[1] = target: T1, human calcitonin receptor (Homo sapiens, UniProt P30988); experiment: Assay (VII) binding to the human calcitonin receptor (SPA, 125I-Calcitonin); settings: read-out: hCTR bind IC50;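 note: cell membranes coupled to SPA beads, competitive displacement read by scintillation counting, IC50 derived from a one-site competition fit as a measure of receptor affinity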
T1 construct: expressed in transfected cells
T1 sequence (P30988 25-474): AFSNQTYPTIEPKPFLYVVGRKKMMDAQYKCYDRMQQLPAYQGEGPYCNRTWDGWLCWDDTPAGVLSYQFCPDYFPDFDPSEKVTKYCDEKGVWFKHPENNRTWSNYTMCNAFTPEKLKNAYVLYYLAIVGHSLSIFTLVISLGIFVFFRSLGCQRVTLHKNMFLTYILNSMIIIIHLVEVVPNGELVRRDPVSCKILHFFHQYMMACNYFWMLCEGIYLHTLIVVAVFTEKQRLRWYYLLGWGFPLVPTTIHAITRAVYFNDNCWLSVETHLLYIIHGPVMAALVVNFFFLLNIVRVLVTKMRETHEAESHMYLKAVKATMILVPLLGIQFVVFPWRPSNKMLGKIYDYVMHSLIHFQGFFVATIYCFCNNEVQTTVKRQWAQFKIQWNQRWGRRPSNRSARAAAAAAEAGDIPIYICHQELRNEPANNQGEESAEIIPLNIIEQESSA

[2] = target: T1, human calcitonin receptor; experiment: Assay (II)a functional assay, human calcitonin receptor (CRE luciferase, BHK cells);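 note: luminescence from a CRE-driven luciferase reporter, read by single photon counting after cells were exposed to test samples for 3 h at 37 °C under 5% CO2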; type: cell-based; settings: read-out: hCTR funct. EC50
[3] = target: T2, human amylin receptor (amylin 3(a) receptor: human calcitonin receptor + RAMP-3) (Homo sapiens, UniProt O60896+P30988); experiment: Assay (II)a functional assay, human amylin receptor (CRE luciferase, BHK cells); type: cell-based; settings: for EC50: read-out: hAmylin-R funct. EC50
T2 construct: expressed in transfected cells
T2 sequence (P30988 25-474): T1 sequence (P30988 25-474)
T2 sequence (O60896 24-148 partner): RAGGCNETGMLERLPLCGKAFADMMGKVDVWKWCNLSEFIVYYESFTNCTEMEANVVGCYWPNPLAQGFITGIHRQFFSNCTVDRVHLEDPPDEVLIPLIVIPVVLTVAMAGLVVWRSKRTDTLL

human amylin receptor = target: T3, human amylin receptor (Homo sapiens, UniProt O60896+P30988); experiment: Assay (V) binding to the human amylin receptor (SPA, 125I-rat amylin); settings: for IC50: human amylin receptor membranes, SPA, read-out: hAmylin-R bind IC50
T3 construct: expressed in transfected cells
T3 sequence (P30988 25-474): T1 sequence (P30988 25-474)
T3 sequence (O60896 24-148 partner): T2 sequence (O60896 24-148 partner)
Procedure: The binding assay was performed using scintillation proximity assay (SPA) beads (RPNQ0001) from PerkinElmer and cell membranes from the Amylin 3(a)/CRE-luc cells (as described in Assay (II)) were used. Membranes were prepared in the following way; the cells were rinsed with PBS and incubated with Versene for approximately 5 min before harvesting. The cells were flushed with PBS and the cell-suspension was centrifuged for 5 min at 1000 rpm. […] The resulting pellet was resuspended in buffer 2 and protein concentration was measured (BCA protein Assay, Pierce). The homogenate was kept cold during the whole procedure. The membranes were kept at −80° C. until use. The assay was performed in a 384 well Optiplate (PerkinElmer) in a total volume of 40 ul. Membranes were mixed with SPA beads. Final concentration of membranes 35 ng/μL final and SPA beads was 0.05 mg/well. Test-compounds were dissolved in DMSO and further diluted in assay buffer (50 mM Hepes, pH 7.4, 1 mM CaCl2, 5 mM MgCl2, 0.1% OA and 0.02% Tween20). […] Samples were analyzed on TopCounter™ (Packard). The IC50 was calculated using (one site binding competition analysis) GraphPad Prism5 as a measure of receptor affinity.

[4] = Table 6, human functional selectivity (hCTR EC50 / hAmylin-R EC50)
[5] = Table 6a, human functional selectivity (hCTR EC50 / hAmylin-R EC50), at least 5
[6] = human binding ratio, included for comparison

SMILES	IC50 [1] [nM]	IC50 (human amylin receptor) [nM]	Ratio hCT/hAmylin funct. [3, 4]	Ratio hCT/hAmylin funct. [3, 5]	Ratio hCT/hAmylin binding (human amylin receptor; [6])	further results
CC[C@H](C)[C@H](NC(=O)[C@H](C)NC(=O)CNC(=O)[C@H](Cc1ccccc1)NC(=O)[C@H](CC(N)=O)NC(=O)[C@@H]1CCCN1C(=O)[C@H](CO)NC(=O)[C@H](CO)NC(=O)[C@H](Cc1c[nH]cn1)NC(=O)[C@H](CCCNC(=N)N)NC(=O)[C@H](CC(C)C)NC(=O)[C@H](Cc1ccccc1)NC(=O)[C@H](CC(N)=O)NC(=O)[C@H](C)NC(=O)[C@H](CC(C)C)NC(=O)[C@H](CCCNC(=N)N)NC(=O)[C@H](CCC(N)=O)NC(=O)[C@@H](NC(=O)[C@H](C)NC(=O)[C@@H]1CSSC[C@H](NC(=O)[C@@H](N)CCCCNC(=O)CC[C@H](NC(=O)CCCCCCCCCCCCCCCCCCC(=O)O)C(=O)O)C(=O)N[C@@H](CC(N)=O)C(=O)N[C@@H]([C@@H](C)O)C(=O)N[C@@H](C)C(=O)N[C@@H]([C@@H](C)O)C(=O)N1)[C@@H](C)O)C(=O)N1CCC[C@H]1C(=O)N[C@@H](CO)C(=O)N[C@@H](CO)C(=O)N[C@H](C(=O)N[C@@H](CC(N)=O)C(=O)N[C@H](C(=O)NCC(=O)N[C@@H](CO)C(=O)N[C@@H](Cc1c[nH]cn1)C(=O)N[C@H](C(=O)N[C@@H](Cc1ccc(O)cc1)C(N)=O)[C@@H](C)O)C(C)C)[C@@H](C)O [Example 60]	31.4	0.695	–	–	–	EC50 [2]: 5.36 nM; EC50 ([3]; functional assay, human amylin receptor): 0.351 nM
CC(C)C[C@H](NC(=O)[C@H](CCCNC(=N)N)NC(=O)[C@H](CCC(N)=O)NC(=O)[C@@H](NC(=O)[C@H](C)NC(=O)[C@@H]1CSSC[C@H](NC(=O)[C@@H](N)CCCCNC(=O)CC[C@H](NC(=O)CC[C@H](NC(=O)CCCCCCCCCCCCCCCCCCC(=O)O)C(=O)O)C(=O)O)C(=O)N[C@@H](CC(N)=O)C(=O)N[C@@H]([C@@H](C)O)C(=O)N[C@@H](C)C(=O)N[C@@H]([C@@H](C)O)C(=O)N1)[C@@H](C)O)C(=O)N[C@@H](C)C(=O)N[C@@H](CC(=O)O)C(=O)N[C@@H](Cc1ccccc1)C(=O)N[C@@H](CC(C)C)C(=O)N[C@@H](CCCNC(=N)N)C(=O)N[C@@H](Cc1c[nH]cn1)C(=O)N[C@@H](CO)C(=O)N[C@@H](CO)C(=O)N[C@@H](CC(N)=O)C(=O)N1CCC[C@H]1C(=O)N[C@@H](Cc1ccccc1)C(=O)NCC(=O)N[C@@H](C)C(=O)N1CCC[C@H]1C(=O)N[C@@H](CC(C)C)C(=O)N[C@@H](CO)C(=O)N[C@@H](CO)C(=O)N[C@H](C(=O)N[C@@H](CC(N)=O)C(=O)N[C@H](C(=O)NCC(=O)N[C@@H](CO)C(=O)N[C@@H](CC(=O)O)C(=O)N[C@H](C(=O)N[C@@H](Cc1ccc(O)cc1)C(N)=O)[C@@H](C)O)C(C)C)[C@@H](C)O [Example 3] (H-K([γGlu-γGlu-C20 diacid])CNTATCATQRLADFLRHSSNPFGAPLSSTNVGSDTY-NH2; disulfide 2-7)	19.5	1.13	6.7	6.7	–	–
CC[C@H](C)[C@H](NC(=O)[C@H](C)NC(=O)CNC(=O)[C@H](Cc1ccccc1)NC(=O)[C@H](CC(N)=O)NC(=O)[C@@H]1CCCN1C(=O)[C@H](CO)NC(=O)[C@H](CO)NC(=O)[C@H](Cc1c[nH]cn1)NC(=O)[C@H](CCCNC(=N)N)NC(=O)[C@H](CC(C)C)NC(=O)[C@H](Cc1ccccc1)NC(=O)[C@H](Cc1c[nH]cn1)NC(=O)[C@H](C)NC(=O)[C@H](CC(C)C)NC(=O)[C@H](CCCNC(=N)N)NC(=O)[C@H](CCC(N)=O)NC(=O)[C@@H](NC(=O)[C@H](C)NC(=O)[C@@H]1CSSC[C@H](NC(=O)[C@@H](N)CCCCNC(=O)COCCOCCNC(=O)CCCCCCCCCCCCCCCCCCC(=O)O)C(=O)N[C@@H](CC(N)=O)C(=O)N[C@@H]([C@@H](C)O)C(=O)N[C@@H](C)C(=O)N[C@@H]([C@@H](C)O)C(=O)N1)[C@@H](C)O)C(=O)N1CCC[C@H]1C(=O)N[C@@H](CO)C(=O)N[C@@H](CO)C(=O)N[C@H](C(=O)N[C@@H](CC(N)=O)C(=O)N[C@H](C(=O)NCC(=O)N[C@@H](CO)C(=O)N[C@@H](CC(N)=O)C(=O)N[C@H](C(=O)N[C@@H](Cc1ccc(O)cc1)C(N)=O)[C@@H](C)O)C(C)C)[C@@H](C)O [Example 90]	2.57	0.061	–	–	–	EC50 ([3]; Table 6j, human amylin receptor functional): 0.033 nM
CC[C@H](C)[C@H](NC(=O)[C@H](C)NC(=O)CNC(=O)[C@H](Cc1ccccc1)NC(=O)[C@H](CC(N)=O)NC(=O)[C@@H]1CCCN1C(=O)[C@H](CO)NC(=O)[C@H](CO)NC(=O)[C@H](Cc1c[nH]cn1)NC(=O)[C@H](CCCNC(=N)N)NC(=O)[C@H](CC(C)C)NC(=O)[C@H](Cc1ccccc1)NC(=O)[C@H](CCC(=O)O)NC(=O)[C@H](C)NC(=O)[C@H](CC(C)C)NC(=O)[C@H](CCCNC(=N)N)NC(=O)[C@H](CCC(N)=O)NC(=O)[C@@H](NC(=O)[C@H](C)NC(=O)[C@@H]1CSSC[C@H](NC(=O)[C@H](CCCCN)NC(=O)CC[C@H](NC(=O)CC[C@H](NC(=O)CCCCCCCCCCCCCCCCCCC(=O)O)C(=O)O)C(=O)O)C(=O)N[C@@H](CC(N)=O)C(=O)N[C@@H]([C@@H](C)O)C(=O)N[C@@H](C)C(=O)N[C@@H]([C@@H](C)O)C(=O)N1)[C@@H](C)O)C(=O)N1CCC[C@H]1C(=O)N[C@@H](CO)C(=O)N[C@@H](CO)C(=O)N[C@H](C(=O)N[C@@H](CC(N)=O)C(=O)N[C@H](C(=O)NCC(=O)N[C@@H](CO)C(=O)N[C@@H](CC(N)=O)C(=O)N[C@H](C(=O)N[C@@H](Cc1ccc(O)cc1)C(N)=O)[C@@H](C)O)C(C)C)[C@@H](C)O [Example 15] ({C20 diacid-γGlu-γGlu}-KCNTATCATQRLAEFLRHSSPNFGAIPSSTNVGSNTY-NH2; disulfide 2-7)	–	–	8.9	8.9	26.0	Ratio hCT/hAmylin funct. ([3]; Table 6i, hCTR funct. EC50 / hAmylin-R funct. EC50): 8.9; Ratio hCT/hAmylin funct. ([3]; Table 6j, hCTR funct. EC50 / hAmylin-R funct. EC50): 8.9; Ratio hCT/hAmylin funct. ([3]; Table 6k, hCTR funct. EC50 / hAmylin-R funct. EC50): 8.9; Ratio hCT/hAmylin binding (human amylin receptor; Table 7b, human calcitonin receptor binding IC50 divided by human amylin receptor binding IC50): 26.0; Ratio hCT/hAmylin binding (human amylin receptor; Table 7c, human calcitonin receptor binding IC50 divided by human amylin receptor binding IC50): 26.0
CC[C@H](C)[C@H](NC(=O)[C@H](C)NC(=O)CNC(=O)[C@H](Cc1ccccc1)NC(=O)[C@H](CC(N)=O)NC(=O)[C@@H]1CCCN1C(=O)[C@H](CO)NC(=O)[C@H](CO)NC(=O)[C@H](Cc1c[nH]cn1)NC(=O)[C@H](CCCNC(=N)N)NC(=O)[C@H](CC(C)C)NC(=O)[C@H](Cc1ccccc1)NC(=O)[C@H](CCC(=O)O)NC(=O)[C@H](C)NC(=O)[C@H](CC(C)C)NC(=O)[C@H](CCCNC(=N)N)NC(=O)[C@H](CCC(N)=O)NC(=O)[C@@H](NC(=O)[C@H](C)NC(=O)[C@@H]1CSSC[C@H](NC(=O)[C@H](CCCCN)NC(=O)CC[C@H](NC(=O)CCCCCCCCCCCCCCCCCCC(=O)O)C(=O)O)C(=O)N[C@@H](CC(N)=O)C(=O)N[C@@H]([C@@H](C)O)C(=O)N[C@@H](C)C(=O)N[C@@H]([C@@H](C)O)C(=O)N1)[C@@H](C)O)C(=O)N1CCC[C@H]1C(=O)N[C@@H](CO)C(=O)N[C@@H](CO)C(=O)N[C@H](C(=O)N[C@@H](CC(N)=O)C(=O)N[C@H](C(=O)NCC(=O)N[C@@H](CO)C(=O)N[C@@H](CC(N)=O)C(=O)N[C@H](C(=O)N1CCC[C@H]1C(N)=O)[C@@H](C)O)C(C)C)[C@@H](C)O [Example 8] ({C20 diacid-γGlu}-KCNTATCATQRLAEFLRHSSPNFGAIPSSTNVGSNTP-NH2; disulfide 2-7)	–	–	1.1	–	0.5	–
